# Reference: patent publication US20070249670A1, “Glycogen Phosphorylase Inhibitor Compounds and Pharmaceutical Compositions Thereof” (SMITHKLINE BEECHAM CORPORATION, priority 2004, published 2007)
# Counter-ions that a name gives are not always drawn.
# Target: T1, human liver glycogen phosphorylase a (HLGPa) (Homo sapiens, UniProt P06737)
# T1 construct: creating a full-length cDNA fused at the 5′ end to codons for methionine-glycine-alanine-histidine; 6xHis tag (leader Met-Gly-Ala-His6-Gly-Gly) (N); made in house; host or cells: E. coli (bacterial expression plasmid pTXK1007LTev)
# T1 sequence (P06737 2-847 limits assumed): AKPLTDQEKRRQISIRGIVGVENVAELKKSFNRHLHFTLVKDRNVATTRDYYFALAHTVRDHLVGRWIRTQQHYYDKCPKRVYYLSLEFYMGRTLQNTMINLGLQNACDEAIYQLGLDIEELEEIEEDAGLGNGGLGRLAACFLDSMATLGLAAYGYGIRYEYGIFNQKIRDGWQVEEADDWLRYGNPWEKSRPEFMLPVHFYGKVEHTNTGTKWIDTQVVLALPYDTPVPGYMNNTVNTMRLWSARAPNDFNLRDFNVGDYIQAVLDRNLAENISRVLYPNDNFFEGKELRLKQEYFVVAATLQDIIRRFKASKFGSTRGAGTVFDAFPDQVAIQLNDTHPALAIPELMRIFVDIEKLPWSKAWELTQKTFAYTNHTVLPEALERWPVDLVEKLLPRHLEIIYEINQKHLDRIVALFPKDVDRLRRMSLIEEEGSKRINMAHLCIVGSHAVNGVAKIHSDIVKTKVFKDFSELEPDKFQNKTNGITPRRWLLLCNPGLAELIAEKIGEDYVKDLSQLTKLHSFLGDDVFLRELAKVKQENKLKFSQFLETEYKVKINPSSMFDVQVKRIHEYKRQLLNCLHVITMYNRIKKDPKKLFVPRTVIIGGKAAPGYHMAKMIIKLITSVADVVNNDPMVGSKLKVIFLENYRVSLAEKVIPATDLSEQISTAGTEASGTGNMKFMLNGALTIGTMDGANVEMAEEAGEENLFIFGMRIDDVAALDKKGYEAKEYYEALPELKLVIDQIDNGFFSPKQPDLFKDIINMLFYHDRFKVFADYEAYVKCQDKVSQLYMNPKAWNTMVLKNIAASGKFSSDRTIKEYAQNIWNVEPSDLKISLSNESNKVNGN
# Assay: Human liver glycogen phosphorylase a enzymatic activity assay (coupled, fluorescent resorufin readout, with and without 10 mM glucose)
# Type: biochemical
# Details: human liver glycogen phosphorylase a enzymatic activity assay
row,SMILES,IC50 [µM]
1,"Cc1cccc(C)c1NC(=O)Nc1cc2ccccc2cc1C(=O)N[C@@H](Cc1ccccc1)C(=O)O [Example 51, N-[3-({[(2,6-dimethylphenyl)amino]carbonyl}amino)-2-naphthoyl]-L-phenylalanine]",0.68
2,"Cc1cccc(C(C)C)c1NC(=O)Nc1cc2ccccc2cc1C(=O)NC(C(=O)O)c1ccccc1 (stereo not shown) [Example 104, {[3-({[(2-isopropyl-6-methylphenyl)amino]carbonyl}amino)-2-naphthoyl]amino}(phenyl)acetic acid]",1.04
3,"Cc1cccc(C)c1NC(=O)Nc1cc(F)c(F)cc1C(=O)N[C@H](C(=O)O)C1CCCCC1 [Example 116, (2S)-cyclohexyl{[2-({[(2,6-dimethylphenyl)amino]carbonyl}amino)-4,5-difluorobenzoyl]amino}acetic acid]",1.63
4,"Cc1cccc(C)c1NC(=O)Nc1cc(Cl)ccc1C(=O)N[C@H](C(=O)O)C1CCCCC1 [Example 157, (2S)-({[4-chloro-2-({[(2,6-dimethylphenyl)amino]carbonyl}amino)phenyl]carbonyl}amino)(cyclohexyl)ethanoic acid]",0.242
5,"Cc1cccc(C)c1NC(=O)Nc1cc2ccccc2cc1C(=O)N[C@H](C(=O)O)[C@@H](C)O [Example 22, N-[3-({[(2,6-dimethylphenyl)amino]carbonyl}amino)-2-naphthoyl]-L-threonine]",1.08
6,"Cc1ccccc1NC(=O)Nc1cc2ccccc2cc1C(=O)N[C@@H](Cc1cnc[nH]1)C(=O)O [Example 44, N-[3-({[(2-methylphenyl)amino]carbonyl}amino)-2-naphthoyl]-L-histidine trifluoroacetate]",5.18
7,"Cc1cccc(C)c1NC(=O)Nc1cc2ccccc2cc1C(=O)NCCCC(=O)O [Example 492, 4-({[3-({[(2,6-dimethylphenyl)amino]carbonyl}amino)-2-naphthalenyl]carbonyl}amino)butanoic acid]",7.52
8,"Cc1cc(CC2CC2)cc(C)c1NC(=O)Nc1cc(F)ccc1C(=O)N[C@H](C(=O)O)C1CCCCC1 [Example 482, (2S)-cyclohexyl[({2-[({[4-(cyclopropylmethyl)-2,6-dimethylphenyl]amino}carbonyl)amino]-4-fluorophenyl}carbonyl)amino]ethanoic acid]",0.005
9,"O=C(Nc1cc(-c2ccccc2)sc1C(=O)O)Nc1c(Cl)cccc1Cl [Example 410, 3-({[(2,6-dichlorophenyl)amino]carbonyl}amino)-5-phenyl-2-thiophenecarboxylic acid]",0.89
10,"COc1ccc(-c2cc(C(=O)O)c(NC(=O)Nc3c(Cl)cc(OC(F)(F)F)cc3Cl)s2)cc1 [Example 426, 2-{[({2,6-dichloro-4-[(trifluoromethyl)oxy]phenyl}amino)carbonyl]amino}-5-[4-(methyloxy)phenyl]-3-thiophenecarboxylic acid]",1.31

# Other lines, results leading:
row,IC50 [µM],SMILES
1,0.11,"O=C(Cc1c(Cl)cc(C(F)(F)F)cc1Cl)Nc1cc2ccccc2cc1C(=O)N[C@H](C(=O)O)C1CCCCC1 [Example 161, (2S)-cyclohexyl{[3-({[2,6-dichloro-4-(trifluoromethyl)phenyl]acetyl}amino)-2-naphthoyl]amino}ethanoic acid]"
2,0.59,"CCc1cccc(CC)c1NC(=O)Nc1cc2ccccc2cc1C(=O)N[C@H](C(=O)O)C1CCCCC1 [Example 93, (2S)-cyclohexyl({[3-({[(2,6-diethylphenyl)amino]carbonyl}amino)-2-naphthalenyl]carbonyl}amino)ethanoic acid]"
3,0.43,"Cc1cccc(Cl)c1NC(=O)Nc1cc2ccccc2cc1C(=O)N[C@H](C(=O)O)[C@@H](C)O [Example 37, N-[3-({[(2-chloro-6-methylphenyl)amino]carbonyl}amino)-2-naphthoyl]-L-threonine]"
4,4.85,"O=C(Nc1cc2ccccc2cc1C(=O)N[C@H](C(=O)O)C1CCCCC1)Nc1c(F)cccc1F [Example 153, (2S)-cyclohexyl({[3-({[(2,6-difluorophenyl)amino]carbonyl}amino)-2-naphthalenyl]carbonyl}amino)ethanoic acid]"
5,0.089,"Cc1cc(C)c(NC(=O)Nc2cc3ccccc3cc2C(=O)N[C@@H](CCNC(=O)OC(C)(C)C)C(=O)O)c(C)c1 [Example 516, (2S)-4-({[(1,1-dimethylethyl)oxy]carbonyl}amino)-2-({[3-({[(2,4,6-trimethylphenyl)amino]carbonyl}amino)-2-naphthalenyl]carbonyl}amino)butanoic acid]"
6,0.016,"COc1ccc(-c2cc(C(=O)N[C@H](C(=O)O)C3CCCCC3)c(NC(=O)Nc3c(C)cc(C)cc3C)s2)cc1 [Example 425, (2S)-cyclohexyl({[5-[4-(methyloxy)phenyl]-2-({[(2,4,6-trimethylphenyl)amino]carbonyl}amino)-3-thienyl]carbonyl}amino)ethanoic acid]"
7,9.41,"COc1cc(NC(=O)Nc2c(C)cccc2C)c(C(=O)N[C@@H](Cc2c[nH]c3ccccc23)C(=O)O)cc1OC [Example 82, N-[2-({[(2,6-dimethylphenyl)amino]carbonyl}amino)-4,5-dimethoxybenzoyl]-L-tryptophan trifluoroacetate]"
8,22.1,"CC[C@H](C)[C@H](NC(=O)c1cc2ccccc2cc1NC(=O)Nc1ccccc1Cl)C(=O)O [Example 30, N-[3-({[(2-chlorophenyl)amino]carbonyl}amino)-2-naphthoyl]-L-isoleucine]"
9,0.1,"Cc1cccc(C)c1NC(=O)Nc1cc(-c2cccs2)ccc1C(=O)N[C@H](C(=O)O)C1CCCCC1 [Example 183, (2S)-Cyclohexyl({[2-({[(2,6-dimethylphenyl)amino]carbonyl}amino)-4-(2-thienyl)phenyl]carbonyl}amino)ethanoic acid]"

# Same assay, conditions: human liver glycogen phosphorylase a; table does not say whether with or without 10 mM glucose
row,SMILES,IC50 [µM]
1,"COc1ccc(-c2ccc(C(=O)N[C@H](C(=O)O)C3CCCC3)c(NC(=O)Nc3c(C)cc(C)cc3C)c2)cc1 [Example 210, (2S)-Cyclopentyl({[4′-(methyloxy)-3-({[(2,4,6-trimethylphenyl)amino]carbonyl}amino)-4-biphenylyl]carbonyl}amino)ethanoic acid]",0.014
2,"O=C(Nc1cc2ccccc2cc1C(=O)NC1(C(=O)O)CCCCCC1)Nc1c(Cl)cc(Cl)cc1Cl [Example 301, 1-({[3-({[(2,4,6-Trichlorophenyl)amino]carbonyl}amino)-2-naphthalenyl]carbonyl}amino)cycloheptanecarboxylic acid]",0.35
3,"Cc1cc(C)c(NC(=O)Nc2cc(-c3ccc4c(c3)OCO4)ccc2C(=O)N[C@H](C(=O)O)C2CCCCC2)c(C)c1 [Example 224, (2S)-({[4-(1,3-Benzodioxol-5-yl)-2-({[(2,4,6-trimethylphenyl)amino]carbonyl}amino)phenyl]carbonyl}amino)(cyclohexyl)-ethanoic acid]",0.003
4,"Cc1cc(C)c(NC(=O)Nc2cc(-c3ccc(F)c(F)c3)ccc2C(=O)N[C@@H](CC(=O)O)C(=O)O)c(C)c1 [Example 375, N-{[3′,4′-difluoro-3-({[(2,4,6-trimethylphenyl)amino]carbonyl}amino)-4-biphenylyl]carbonyl}-L-aspartic acid]",0.043
5,"Cc1cccc(C)c1NC(=O)Nc1cc2ccccc2cc1C(=O)N(CC(=O)O)C1CCCC1 [Example 244, N-cyclopentyl-N-{[3-({[(2,6-dimethylphenyl)amino]carbonyl}amino)-2-naphthalenyl]carbonyl}glycine]",0.97

# More lines, now with the values ahead:
row,IC50 [µM],SMILES
1,9.87,"O=C(Nc1c(Cl)cccc1Cl)Nc1c(C(=O)N[C@H](C(=O)O)C2CCCCC2)oc2cc(Br)ccc12 [Example 327, (2S)-({[6-Bromo-3-({[(2,6-dichlorophenyl)amino]carbonyl}amino)-1-benzofuran-2-yl]carbonyl}amino)(cyclohexyl)ethanoic acid]"
2,12.2,"O=C(Nc1cc2ccccc2cc1C(=O)N(Cc1ccccc1)[C@@H](Cc1ccccc1)C(=O)O)Nc1c(Cl)cccc1Cl [Example 251, N-{[3-({[(2,6-dichlorophenyl)amino]carbonyl}amino)-2-naphthalenyl]carbonyl}-N-(phenylmethyl)phenylalanine]"
3,0.61,"Cc1cc(C)c(NC(=O)Nc2cc3ccccc3cc2C(=O)N[C@H](CC(=O)O)c2ccccc2)c(C)c1 [Example 336, (3R)-3-phenyl-3-({[3-({[(2,4,6-trimethylphenyl)amino]carbonyl}amino)-2-naphthalenyl]carbonyl}amino)propanoic acid]"
4,7.77,"C[C@@H](C(=O)O)N(Cc1ccccc1)C(=O)c1cc2ccccc2cc1NC(=O)Nc1c(Cl)cccc1Cl [Example 250, N-{[3-({[(2,6-dichlorophenyl)amino]carbonyl}amino)-2-naphthalenyl]carbonyl}-N-(phenylmethyl)-L-alanine]"
